Several values for one entry are separate records, joined by “and”; a condition that tells them apart may be missing. Equal entries are not always repeated.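 Five concentrations, 48 hours, 96-well plates. GI50 = concentration required for 50% inhibition of growth. TGI: concentration producing complete growth inhibition.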

Our source for the GI50 and TGI values is PubChem BioAssay (NCI).

The subject of one assay is SK-MEL-5 melanoma. The assay is described as follows: growth of human tumour cells (NCI), 48 h.
Regarding `CCN1C(=O)c2ccc3c4c(ccc(c24)C1=O)C(=O)N(CCCNCc1ccccc1OC)C3=O`, the GI50 was 0.164 µM and the TGI was determined as 0.319 µM.
With `O=C(/C=C/c1ccccc1)Nc1ncc(Cc2ccccc2Cl)s1`, the GI50 was 0.341 µM.
Regarding `CN(c1ccc(NC(=O)Nc2c(Cl)cccc2Cl)cc1)c1ccnc(Nc2cccc(CS(C)(=O)=O)c2)n1`, the GI50 was 2.79 µM and the TGI was 7.09 µM.
For `CCCCCCCCCCCCCCCCCCOC[C@H](COP(=O)(O)O[C@H]1[C@H](O)[C@@H](O)[C@H](O)C[C@H]1O)OC`, the GI50 was > 100 µM and 18 µM; the TGI was > 100 µM and 32.3 µM.
In the case of `CN(C)C/C=C/C(=O)Nc1ccc(C(=O)N[C@@]2(C)CCC[C@@H](Nc3ncc(Cl)c(-c4c[nH]c5ccccc45)n3)C2)nc1`, the GI50 is 0.0221 µM and the TGI worked out at 0.779 µM.
Take `COCCOC(=O)C1=C(O)c2ccccc2S(=O)(=O)N1C`: the TGI was above 100 µM.
As for `CC(C)CNc1nc(-c2ccccc2Cl)nc2ccccc12`, the GI50 is 16.2 µM and the TGI was found to be 29.8 µM.
Consider `CN(C)CCOc1ccc([N+](=O)[O-])c2cccnc12`, for which the TGI was above 100 µM.
As for `C=C(C)[C@@H]1CC[C@]2(COCCCN)CC[C@]3(C)[C@H](CC[C@@H]4[C@@](C)(CCCNCCCN)[C@H](C(=C)C)CC[C@]43C)[C@@H]12`, the GI50 was 1.81 µM and the TGI came to 3.27 µM.
Take `O=NNc1ccc2ccccc2n1`: the TGI is above 100 µM.
Same read-out and setting: then `CC(C)(C)c1cc([N+](=O)[O-])cc([N+](=O)[O-])c1O`, with above 10 µM.
As for `COc1ccc2c(c1)C(=O)/C(=C/c1cccc(OCC(=O)c3ccccc3)c1)O2`, the GI50 is 14.3 µM and the TGI was determined as 28.1 µM.
For `O=C1NC(=S)S/C1=C/c1ccc2c(c1)OCO2` the same measures were above 100 µM and above 100 µM.
In the case of `O=C(O)CCCc1ccc2ccc3ccccc3c2c1`, the TGI was above 100 µM.
For the compound `N/N=C\c1c2ccccc2c(=O)n2c1oc1ccccc12`, the GI50 is 2.8 µM and the TGI came out at 8.34 µM.
For the compound `CSC(SC)(C(=O)O)c1cc(-c2c(Cl)cccc2Cl)no1`, the TGI was 85.8 µM.

Another assay concerns SK-OV-3 ovarian. Briefly: growth of human tumour cells (NCI), 48 h.
For `C[C@]12CCc3sc(Nc4ccc(OC(F)(F)F)cc4)nc3C1=CC[C@@H]1[C@@H]2CC[C@]2(C)C(=O)CC[C@@H]12`, the GI50 is 3.04 µM and the TGI worked out at 10 µM.
For `CCN1C(=O)c2ccc3c4c(ccc(c24)C1=O)C(=O)N(CCCNCc1ccccc1OC)C3=O`, in that order: 2.28 µM and 7.04 µM.
For `O=C(/C=C/c1ccccc1)Nc1ncc(Cc2ccccc2Cl)s1` the same measures were 0.79 µM and above 100 µM.
For `CN(c1ccc(NC(=O)Nc2c(Cl)cccc2Cl)cc1)c1ccnc(Nc2cccc(CS(C)(=O)=O)c2)n1` the same measures were 4.72 µM and 12 µM.
As to `CCCCCCCCCCCCCCCCCCOC[C@H](COP(=O)(O)O[C@H]1[C@H](O)[C@@H](O)[C@H](O)C[C@H]1O)OC`, the GI50 was > 100 µM and 17.4 µM; the TGI is > 100 µM and 34 µM.
In the case of `CN(C)C/C=C/C(=O)Nc1ccc(C(=O)N[C@@]2(C)CCC[C@@H](Nc3ncc(Cl)c(-c4c[nH]c5ccccc45)n3)C2)nc1`, the GI50 was 0.101 µM and the TGI came to 1.23 µM.
For the compound `COCCOC(=O)C1=C(O)c2ccccc2S(=O)(=O)N1C`, the TGI was above 100 µM.
Consider `CC(C)CNc1nc(-c2ccccc2Cl)nc2ccccc12`, for which the GI50 was 21.3 µM and the TGI is 50.1 µM.
For the compound `CN(C)CCOc1ccc([N+](=O)[O-])c2cccnc12`, the TGI was above 100 µM.
Regarding `C=C(C)[C@@H]1CC[C@]2(COCCCN)CC[C@]3(C)[C@H](CC[C@@H]4[C@@](C)(CCCNCCCN)[C@H](C(=C)C)CC[C@]43C)[C@@H]12`, the GI50 is 2.23 µM and the TGI turned out to be 4.9 µM.
`O=NNc1ccc2ccccc2n1` yielded a TGI above 100 µM.
On to `CC(C)(C)c1cc([N+](=O)[O-])cc([N+](=O)[O-])c1O`, for which the TGI was above 10 µM.
Take `COc1ccc2c(c1)C(=O)/C(=C/c1cccc(OCC(=O)c3ccccc3)c1)O2`: the GI50 was 15.8 µM and the TGI was found to be 29.2 µM.
As for `O=C1NC(=S)S/C1=C/c1ccc2c(c1)OCO2`, the GI50 is above 100 µM and the TGI is above 100 µM.
Consider `CC(=O)OC1OC([C@H]2c3cccc(O)c3C(=O)c3c(O)cc(C)cc32)C(O)C(O)C1O` (some centres not stated), for which the GI50 was 0.0576 µM and the TGI came to 12.3 µM.
For `N/N=C\c1c2ccccc2c(=O)n2c1oc1ccccc12` the same measures were 17.6 µM and 34.3 µM.
`CSC(SC)(C(=O)O)c1cc(-c2c(Cl)cccc2Cl)no1` returned a TGI above 100 µM.

The subject of the next assay is T-47D breast. The assay is described as follows: growth of human tumour cells (NCI), 48 h.
Turning to `C[C@]12CCc3sc(Nc4ccc(OC(F)(F)F)cc4)nc3C1=CC[C@@H]1[C@@H]2CC[C@]2(C)C(=O)CC[C@@H]12`, the GI50 is 2.15 µM and the TGI came to 6.43 µM.
Consider `CCN1C(=O)c2ccc3c4c(ccc(c24)C1=O)C(=O)N(CCCNCc1ccccc1OC)C3=O`, for which the GI50 was 1 µM and the TGI stood at 3.29 µM.
For `O=C(/C=C/c1ccccc1)Nc1ncc(Cc2ccccc2Cl)s1`, in that order: 0.513 µM and above 100 µM.
Take `CN(c1ccc(NC(=O)Nc2c(Cl)cccc2Cl)cc1)c1ccnc(Nc2cccc(CS(C)(=O)=O)c2)n1`: the GI50 was 4.46 µM and the TGI is 13.2 µM.
Turning to `CCCCCCCCCCCCCCCCCCOC[C@H](COP(=O)(O)O[C@H]1[C@H](O)[C@@H](O)[C@H](O)C[C@H]1O)OC`, the GI50 is > 100 µM and 16.9 µM; the TGI is > 100 µM and 37.4 µM.
Take `CN(C)C/C=C/C(=O)Nc1ccc(C(=O)N[C@@]2(C)CCC[C@@H](Nc3ncc(Cl)c(-c4c[nH]c5ccccc45)n3)C2)nc1`: the GI50 is 0.0218 µM and the TGI turned out to be 0.565 µM.
Regarding `COCCOC(=O)C1=C(O)c2ccccc2S(=O)(=O)N1C`, the TGI is above 100 µM.
